Marks after values point to notes of the source that are not given here.
Assays:
[1] = tested on: select advanced solid tumors (HPV+ carcinomas); assay: Phase 1 open-label clinical trial of Compound 30; format: in vivo, human; design: key: complete response (CR); partial response (PR); stable disease (SD); progressive disease (PD)
Source text: Two open-label, nonrandomized, global multicenter Phase 1 studies in participants with select advanced solid tumors are being conducted for Compounds 24 and 30 in Table 1 supra. In addition to the primary endpoint of determining safety, tolerability, PAD and/or maximum tolerated dose (MTD) of each compound, the studies are exploring preliminary efficacy (complete response (CR), partial response (PR), stable disease (SD), or progressive disease (PD)) in participants with select advanced cancers, including virally mediated tumors such as HPV+ carcinomas. HPV+ tumors can be determined by a local laboratory using p16 IHC, polymerase chain reaction methods, or other locally-available method to detect HPV. Results for patients having solid tumors whose HPV+ status was confirmed, suspected or negative are shown below for Compound 24 and Compound 30 in Tables 4 and 5, respectively.

[2] = tested on: advanced solid tumors (HPV-positive tumors); assay: Phase 1 open-label clinical trial of Compound 1; format: in vivo, human
Source text: This study is a Phase 1, open-label, dose-finding study for Compound 1 (see Table 1, supra). Eligible participants enrolled will receive Compound 1 as an oral tablet (50-mg, 100-mg, or 400-mg) during 21-day or 28-day cycles until disease progression, unacceptable toxicity, death, withdrawal of consent, or any other reason. Continuous treatment administration may be once daily (QD) or twice daily (BID).
Following a dose escalation study to identify a pharmacological active dose, this trial will enroll up to 60 participants with HPV-positive tumors at 1 or more pharmacologically active dose (PAD) doses to further evaluate safety, efficacy, PK, and pharmacodynamic effects. A maximum of 20 participants may be enrolled per dose level. Participants must have HPV-positive tumors as determined by a local laboratory using p16 IHC, polymerase chain reaction methods, or other locally-available method to detect HPV.
Participants are eligible to be included in the study only if all of the following criteria apply: • 1. Male and female participants must be ≥ 18 years of age at the time of signing the ICF. • 2. Ability to comprehend and willingness to sign an ICF. • 3. Must be willing and able to conform to and comply with all Protocol requirements, including all scheduled visits, Protocol procedures, and the ability to swallow oral medication. • 4. Histologically confirmed advanced solid tumors with measurable lesions (per RECIST v1.1 or RANO for primary brain tumors) that are considered nonamenable to surgery or other curative treatments or procedures. […] Participants must have disease progression after treatment with available therapies that are known to confer clinical benefit or who are intolerant to or ineligible for standard treatment. • 6. Willingness to undergo a tumor biopsy to obtain tumor tissue. • 7. Eastern Cooperative Oncology Group performance status score of 0 or 1. • 8. Life expectancy > 12 weeks. • 9. Willingness to avoid pregnancy or fathering children. • 10. For the cohort participating in the extension to participants with HPV-positive solid tumors: any HPV-positive solid tumor which has received prior standard therapy.
Adult patients (≥18 years) with advanced solid tumors were enrolled into this open-label study. Patients had disease progression after standard available therapy, or were intolerant of, or ineligible for standard treatment. Measureable disease was required. A modified 3+3 dose escalation design was employed, followed by dose expansions. The primary endpoints were safety and tolerability of Compound 1, identification of a pharmacologically active dose and/or maximum tolerated dose, and confirmation of the recommended Phase 2 dose. Secondary endpoints included PK, pharmacodynamics, and efficacy as assessed by investigator-determined objective response and disease control rates (complete response (CR), partial response (PR), or stable disease (SD)).
Patients that were confirmed to have HPV+ or confirmed to be HPV- are indicated below. Patients of unknown HPV status are also indicated.

[3] = Anal, Confirmed HPV+, 400 mg BID
[4] = Anal, Total (all HPV status), 400 mg BID
[5] = Anal, Unknown HPV status, 400 mg BID
[6] = Cervical, Confirmed HPV+, 400 mg BID
[7] = Cervical, Total (all HPV status), 400 mg BID
[8] = Total of tumor types, Confirmed HPV+
[9] = Total of tumor types, Total (all HPV status)
[10] = Total of tumor types, Unknown HPV status

Structure (SMILES): Cn1c(C(=O)Nc2cccc(-c3cccc(NC(=O)c4nc5c(n4C)CCN(CCC46CCC(C(=O)O)(CC4)C6)C5)c3Cl)c2Cl)nc2c1CCN(CCC13CCC(C(=O)O)(CC1)C3)C2 [Compound 30, 4,4′-(((((2,2′-dichloro-[1,1′-bipheiryl]-3,3′-diyl)bis(azanediyl))bis(carbonyl))bis(1-methyl-1,4,6,7-tetrahydro-5H-imidazo[4,5-c]pyridine-2,5-diyl))bis(ethane-2,1-diyl))bis(bicyclo[2.2.1]heptane-1-carboxylic acid)]
- Best Overall Response ([1]; Patient 1, 300 mg BID, Cervical cancer (SCC), p16 positive): PR
- Best Overall Response ([1]; Patient 2, 300 mg BID, Nasopharyngeal (SCC), p16 negative): SD
- Best Overall Response ([1]; Patient 3, 300 mg BID, Cervical cancer (SCC), p16 positive): SD
- Best Overall Response ([1]; Patient 4, 400 mg BID, Cervical cancer (SCC), p16 positive): PD
- Best Overall Response ([1]; Patient 5, 400 mg BID, Nasopharyngeal (SCC), HPV/p16 status Not determined): SD
- Best Overall Response ([1]; Patient 6, 400 mg BID, Cervical cancer (SCC), Positive due to HSIL): SD
- Best Overall Response ([1]; Patient 7, 400 mg BID, Acinic cell parotid gland carcinoma, HPV/p16 status Not determined): PD
- Best Overall Response ([1]; Patient 8, 400 mg BID, Cervical cancer (adenosquamous), p16 positive): PR
- Best Overall Response ([1]; Patient 9, 600 mg QD, Cervical cancer (SCC), p16 positive): PD
- Best Overall Response ([1]; Patient 10, 600 mg QD, Cervical cancer (SCC and adenocarcinoma), HPV/p16 status Not determined): PD
- Best Overall Response ([1]; Patient 11, 600 mg BID, Cervical cancer (SCC), p16 positive): PD
- Best Overall Response ([1]; Patient 12, 600 mg BID, Penile cancer (SCC), p16 positive): SD
- Best Overall Response ([1]; Patient 13, 200 mg BID, Anal canal (SCC), HPV/p16 status Not determined): PD

Structure (SMILES): Cc1c(Nc2nccc3cc(CN4CC[C@@H](O)C4)cnc23)cccc1-c1cccc(-c2nc3cc(CN4CC[C@@H](C(=O)O)C4)cc(C#N)c3o2)c1C [Compound 1, (R)-1-((7-cyano-2-(3′-(3-(((R)-3-hydroxypyrrolidin-1-yl)methyl)-1,7-naphthyridin-8-ylamino)-2,2′-dimethylbiphenyl-3-yl)benzo[d]oxazol-5-yl)methyl)pyrrolidine-3-carboxylic acid]
- ORR based on PR or CR ([2]; 14 evaluable patients, 400 mg BID or 800 mg BID, factoring in responses in patients with unknown HPV status): about 28.6%
- number of patients with PD [2, 3]: 1
- number of patients with SD [2, 3]: 1
- number of patients with PR/CR ([2]; Anal, Confirmed HPV+, patient received 800 mg BID): 1^a
- number of patients with PD [2, 4]: 3
- number of patients with SD [2, 4]: 2
- number of patients with PR/CR ([2]; Anal, Total (all HPV status), 400 or 800 mg BID): 3
- number of patients with PD [2, 5]: 2
- number of patients with SD [2, 5]: 1
- number of patients with PR/CR ([2]; Anal, Unknown HPV status, 1 out of 2 patients received 800 mg BID): 2^b
- number of patients with PD [2, 6]: 2
- number of patients with SD [2, 6]: 1
- number of patients with PD [2, 7]: 2
- number of patients with SD [2, 7]: 1
- number of patients with PD ([2]; HNSCC, Confirmed HPV-, patient received 800 mg BID): 1^a
- number of patients with PD ([2]; HNSCC, Total (all HPV status)): 1
- number of patients with SD ([2]; Penile, Confirmed HPV+, 400 mg BID): 1
- number of patients with SD ([2]; Penile, Total (all HPV status), 400 mg BID): 1
- number of patients with PD [2, 8]: 3
- number of patients with PR/CR [2, 8]: 2
- number of patients with SD [2, 8]: 3
- number of patients with PD ([2]; Total of tumor types, Confirmed HPV-): 1
- number of patients with PD [2, 9]: 6
- number of patients with PR/CR [2, 9]: 4
- number of patients with SD [2, 9]: 4
- number of patients with PD [2, 10]: 2
- number of patients with PR/CR [2, 10]: 2
- number of patients with SD [2, 10]: 1
- number of patients with PR/CR ([2]; Vaginal, Confirmed HPV+, 400 mg BID): 1
- number of patients with PR/CR ([2]; Vaginal, Total (all HPV status), 400 mg BID): 1

Reference: patent US20230149409A1, “TREATMENT OF HUMAN PAPILLOMAVIRUS-ASSOCIATED CANCERS BY PD-L1 INHIBITORS” (priority 2021, published 2023)
